What all share (type): cell-based, human
In one assay the test system is MMP-13. Description: IL-1/OSM-stimulated pro-MMP-13 production in SW-1353 cells (ELISA). To be noted: for IC50: Homo sapiens, mean (Examples 8, 10), read-out: IC50 values by pro-MMP-13 (OSM/IL-1-mediated production); for IC50 / effect on OSM/IL-1-mediated pro-MMP-13 production: SW1353 cells; for effect on OSM/IL-1-mediated pro-MMP-13 production: up to 1.5 μM. The source says: To test the compounds identified in the preliminary reporter (luciferase) activity […]® line 4A1 screen for inhibition of OSM signaling in a more physiologically relevant environment, a human cell line involved in an inflammatory disease was adapted. The human cartilage cell line SW-1353 was selected.
In the human cartilage cell line SW-1353, while IL-1 is believed to activate expression of collagenases to a small degree and OSM is believed to have no effect on collagenase expression, a combination of IL-1 and OSM is believed to lead to a synergistic activation of collagenases to much higher levels (S. Cowell et al., Biochem J 331 (Pt 2), 453 (Apr. 15, 1998). Regulation of MMP-13 in SW-1353 cells is, therefore, believed to provide a biomarker which can be used to monitor IL-1/OSM-mediated signal transduction events in secondary assays.
The same supernatants of culture media used in the primary screen were assayed for IL-1/OSM-stimulated pro-MMP-13 production and MMP-2 production by enzyme-linked immunosorbent assay (ELISA).
For matrix metalloproteinase (MMP) measures, SW1353 cells were grown to confluence in 24 well plates, washed in DMEM (with Ham's F12) and placed in 500 ul of serum free DMEM/F-12 with 0.2% lactalbumin hydrosylate with and without OsM/IL-1. After 24 hrs, supernatants were collected and the amounts of proMMP13, totalMMP2, and proMMP1 were measured using Quantikine® ELISA kit for human MMPs (R & D systems, Minneapolis, Minn.). All MMP measures were normalized to viable cell numbers based on a tetrazolium (MTS) colorimetric measure (Promega, Madison, Wis.).

The next assay deals with OSM signaling. Description: […] 4A1 cell line (A549) OSM-stimulated luciferase reporter assay. Conditions: for IC50: Homo sapiens, A549; for effect on OSM-mediated reporter activity: up to 1.5 μM. As to the method: Cell line 4A1 was established in A549 cells (a human lung cancer cell line) using BV32, a vector that carries both the luciferase and GFP reporters. Assay development was performed to optimize the conditions of the OSM-response in the 4A1 […]® line.
(§1) Reporter activities of Sentinel® clones were measured using the Steady-Glo® Luciferase assay system (Promega, Madison, Wis.), according to the manufacturer's instructions, and were normalized to cell numbers based on nucleic acid quantification (CyQuant® cell proliferations assay, Molecular Probes/Invitrogen, Carlsbad, Calif.). In order to identify potential anti-inflammatory compounds, the OSM-responding Sentinel® clone 4A1 was used for a library screen of approximately 1800 compounds.
(In general: A reporter such as luciferase makes a cellular process visible.)

Another assay relates to 4A1 reporter activity. Description: Activation of 4A1 Sentinel luciferase reporter by cytokines. To be noted: for maximum activation of 4A1 luciferase reporter over background / EC50, induced reporter activity of 4A1: 4A1 cells; for EC50, induced reporter activity of 4A1: IL-1; for stimulatory effect on 4A1 reporter activity: other gp-130-binding cytokine family members, data not shown. As to the method: as §1
Sentinel lines were developed by utilizing promoter trapping technology in combination with positive and negative selections to efficiently deliver reporter genes into endogenously regulated genetic sites. Using this approach, a Sentinel cell line, 4A1, in A549 lung carcinoma cells that responded specifically to OSM and IL-1 stimulation among a panel of cytokines and active compounds was established (FIG. 9A).
OSM dose-dependently activated the luciferase reporter activity of 4A1 5-7 folds over background with EC50 of approximately 50 ng/ml (FIGS. 9A and B). […] When OSM and IL-1 were added together to 4A1 cells, the reporter activity appeared to be moderately more than the sum of individual activities obtained when OSM and IL-1 added separately (FIG. 9D). However, the luciferase activity of 4A1 appeared to respond predominantly to OSM, because OSM typically produced 5-7-fold maximum activation whereas IL-1 only produced 2-fold maximum activation (FIGS. 9B and C).

Setting [1] is: 4A1 cell line, primary screen (Table 1), read-out: IC50, inhibition of OSM-stimulated (luciferase) reporter activity.
[2] abbreviates: 4A1 cells, mean (Examples 7, 10), read-out: IC50 values by luciferase reporter activity (OSM-stimulated).

Like-named read-outs stand apart in the source and are kept apart here.

For `COc1cc2c(c(OC)c1OC)-c1ccc(OC)c(=O)cc1[C@@H](NC(C)=O)CC2` (atropisomer, axis not shown) [Colchicine (4), colchicine], the “reduction of signal (MMP-13 secondary assay)” value in the assay on MMP-13 (at 4 μM, SW-1353) was “approximately 83%”. On to `O=c1oc2ccccc2c(O)c1Cc1c(O)c2ccccc2oc1=O` [Dicumarol (11), 4-hydroxy-3-((4-hydroxy-2-oxo-2H-chromen-3-yl)methyl)-2H-chromen-2-one], for which the IC50 in the assay on OSM signaling (setting [1]) came out at 3700 nM. `C/C=C(/C(=C/C)c1ccc(O)cc1)c1ccc(O)cc1` [Dienestrol (10), 4-((2E,4E)-4-(4-hydroxyphenyl)hexa-2,4-dien-3-yl)phenol]: in the assay with OSM signaling (setting [1]), the IC50 was found to be 3500 nM.

As to `COC(=O)Nc1nc2cc(Sc3ccccc3)ccc2[nH]1` [Fenbendazole (6), [5-(phenylthio)-1H-benzimidazol-2-yl]carbamic acid methyl ester], the IC50 in the assay on OSM signaling (setting [1]) is 800 nM. On to `C=C1C(=O)[C@@]23[C@H](O)C[C@@H]4C(C)(C)CC[C@H](O)[C@@]4(CO)[C@@H]2CC[C@@H]1[C@H]3O` [Kamebakaurin, reference compound], for which, in the assay on OSM signaling (4A1 cells, FIG. 10A-E), the “effect of pathway inhibitors on OSM-stimulated reporter activity” value (from here on “effect of pathway inhibitors”) is on record as “inhibited the reporter activity in a dose-dependent manner”. Turning to `Clc1ccc2ncnc(NCc3ccc4c(c3)OCO4)c2c1` [MBCQ (5), 4-[[3,4-(Methylenedioxy)benzyl]amino]-6-chloroquinazoline], the IC50 in the assay on OSM signaling (setting [1]) amounted to 400 nM.

`COc1c(C)c2c(c(O)c1C/C=C(\C)CCC(=O)O)C(=O)OC2` [Mycophenolic acid (3), 6-(4-Hydroxy-6-methoxy-7-methyl-3-oxo-5-phthalanyl)-4-methyl-4-hexenoic acid]: the IC50 in the assay on OSM signaling (setting [1]) turned out to be 20 nM.

Consider `COC(=O)Nc1nc2ccc(C(=O)c3cccs3)cc2[nH]1` [Nocodazole, reference compound], for which the IC50 in the assay on MMP-13 is more than 400 nM; in the assay with OSM signaling (setting [2]), 104 nM. On to `COc1cccc(-c2cc(=O)c3ccccc3o2)c1N` [PD98059, reference compound], for which the “effect of pathway inhibitors” value in the assay on OSM signaling (4A1 cells, FIG. 10A-E) is “inhibited the reporter activity in a dose-dependent manner”. With `COc1cc([C@@H]2c3cc4c(cc3[C@H](O)[C@H]3COC(=O)[C@H]23)OCO4)cc(OC)c1OC` [Podophyllotoxin, reference compound], the IC50 in the assay on MMP-13 turned out to be 54.9 nM; in the assay with OSM signaling (setting [2]), 277 nM.

Regarding `C[S+]([O-])c1ccc(-c2nc(-c3ccncc3)c(-c3ccc(F)cc3)[nH]2)cc1` (centres unmarked) [SB203580, reference compound], the “effect of pathway inhibitors” value with OSM signaling was “inhibited the reporter activity in a dose-dependent manner”.

As for `CC(=O)O[C@H]1C(=O)[C@@]2(C)[C@H]([C@H](OC(=O)c3ccccc3)[C@]3(O)C[C@H](OC(=O)[C@H](O)[C@@H](NC(=O)c4ccccc4)c4ccccc4)C(C)=C1C3(C)C)[C@]1(OC(C)=O)CO[C@@H]1C[C@@H]2O` [Taxol, reference compound], in the assay on MMP-13 (data not shown), the “effect on MMP-13 production” value was “no effect”. The “effect on 4A1 reporter activity” value in the assay on OSM signaling (under 200 nM, data not shown) is given as “dose-dependently inhibited”. In the case of `CC[C@]1(O)C[C@@H]2CN(CCc3c([nH]c4ccccc34)[C@@](C(=O)OC)(c3cc4c(cc3OC)N(C)[C@H]3[C@@](O)(C(=O)OC)[C@H](OC(C)=O)[C@]5(CC)C=CCN6CC[C@]43[C@@H]65)C2)C1` [Vinbalstine, vinblastine, reference compound], the IC50 was found to be 11.6 ± 5.2 nM in the assay with MMP-13 and 3.4 ± 0.6 nM with OSM signaling (setting [2]). `CC1CCC2(C)CCC3C(=CCC4(C)C3CCC3C(C)(C(=O)O)C(C)CCC34C)C2C1C` (stereo not drawn) [β-boswellic acid (7), 1,2,3,4,4a, 5,6,6a, 6b, 7,8,8a, 9, 10, 11, 12, 12a, 14, 14a, 14b-icosahydro-3,4,8a,11,12,14a,14b-heptamethylpicene-4-carboxylic acid]: the IC50 with OSM signaling (setting [1]) stood at 1900 nM. Consider “IL-1β: cytokine from Peprotech used to stimulate cells”, for which, in the assay on 4A1 reporter activity, the “maximum activation of 4A1 luciferase reporter over background” value came out at 2 fold and the “EC50, induced reporter activity of 4A1” value worked out at 0.028 ± 0.01 ng/mL. In addition, the “EC50, induced reporter activity of 4A1” value at 4A1 reporter activity (listed as IL-1) is 0.028 ng/mL. In the case of “IL-6: member of the gp-130-binding cytokine family”, the “stimulatory effect on 4A1 reporter activity” value (“stimulatory effect” below) with 4A1 reporter activity is given as “no stimulatory effect”. Turning to JAK inhibitor I [reference compound], in the assay on OSM signaling (4A1 cells, FIG. 10A-E), the “effect of pathway inhibitors” value is reported as “inhibited the reporter activity in a dose-dependent manner”. Take “LIF: member of the gp-130-binding cytokine family”: the “stimulatory effect” value in the assay with 4A1 reporter activity is listed as “no stimulatory effect”. With “OSM: proinflammatory cytokine, 28-kD glycoprotein of the gp130-binding cytokine family”, the “maximum activation of 4A1 luciferase reporter over background” value with 4A1 reporter activity is given as 5-7 fold. As for cytochalacin B [reference compound], the “effect on OSM/IL-1-mediated pro-MMP-13 production” value with MMP-13 (data not shown) is recorded as “did not have effect”. Also, the “effect on OSM-mediated reporter activity” value in the assay on OSM signaling (4A1 cells, data not shown) is “did not have effect”. For cytochalacin D [reference compound], the “effect on OSM/IL-1-mediated pro-MMP-13 production” value in the assay with MMP-13 (data not shown) was “did not have effect”. Moreover, in the assay on OSM signaling (4A1 cells, data not shown), the “effect on OSM-mediated reporter activity” value is given as “did not have effect”.

B1: CNTF: member of the gp-130-binding cytokine family (protein, UniProt P26441 1-200, looked up)
Ciliary neurotrophic factor: MAFTEHSPLTPHRRDLCSRSIWLARKIRSDLTALTESYVKHQGLNKNINLDSADGMPVASTDQWSELTEAERLQENLQAYRTFHVLLARLLEDQQVHFTPTEGDFHQAIHTLLLQVAAFAYQIEELMILLEYKIPRNEADGMPINVGDGGLFEKKLWGLKVLQELSQWTVRSIHDLRFISSHQTGIPARGSHYIANNKKM
On to B1, for which, in the assay with 4A1 reporter activity, the “stimulatory effect” value is “no stimulatory effect”.

B2: IL-11: member of the gp-130-binding cytokine family (protein, UniProt P20809 22-199, looked up)
Interleukin-11: PGPPPGPPRVSPDPRAELDSTVLLTRSLLADTRQLAAQLRDKFPADGDHNLDSLPTLAMSAGALGALQLPGVLTRLRADLLSYLRHVQWLRRAGGSSLKTLEPELGTLQARLDRLLRRLQLLMSRLALPQPPPDPPAPPLAPPSSAWGGIRAAHAILGGLHLTLDWAVRGLLLLKTRL
For the molecule B2, in the assay with 4A1 reporter activity, the “stimulatory effect” value is reported as “no stimulatory effect”.

B3: CT-1: member of the gp-130-binding cytokine family (protein, UniProt Q16619 1-201, looked up)
Cardiotrophin-1: MSRREGSLEDPQTDSSVSLLPHLEAKIRQTHSLAHLLTKYAEQLLQEYVQLQGDPFGLPSFSPPRLPVAGLSAPAPSHAGLPVHERLRLDAAALAALPPLLDAVCRRQAELNPRAPRLLRRLEDAARQARALGAAVEALLAALGAANRGPRAEPPAATASAASATGVFPAKVLGLRVCGLYREWLSRTEGDLGQLLPGGSA
As for B3, the “stimulatory effect” value in the assay with 4A1 reporter activity is “no stimulatory effect”.

These data come from patent US20060276440A1, “Treatment of inflammatory disorders” (priority 2005, published 2006).
